A short description of data set [1]: Stability in mouse hepatocytes. Type of data set: in vitro ADME. The conditions noted are these: 0.5 μM, 60 min.
A short description of data set [2]: Stability in human hepatocytes. The data set is classed as in vitro ADME. The conditions noted are these: 0.5 μM, 120 min.
Data set [3] can be described thus: Stability in rat hepatocytes. The conditions noted are these: 0.5 μM, 60 min. The data set is classed as in vitro ADME.
Data set [4] is described as follows: Pharmacokinetics in CD-1 IGS mouse. The conditions noted are these: mouse PK studies; for parent recovered in feces following iv administration: data not shown.

For `Cc1ccc(F)c2cc(C(=O)N[C@@H]3CCC[C@H](N4CC[C@H](N(C)S(C)(=O)=O)C4)C3)[nH]c12` [EPZ-719, reference compound], in data set [1], the “scaled Clint, mouse hepatocytes” value amounted to 721 mL min^–1 kg^–1. Besides, the “scaled Clint, human hepatocytes” value in data set [2] amounted to 51 mL min^–1 kg^–1. The “scaled Clint, rat hepatocytes” value in data set [3] came out at 137 mL min^–1 kg^–1.
For `CC(=O)N1CCN([C@H]2CCC[C@@H](NC(=O)c3cc4c(F)ccc(C)c4[nH]3)C2)CC1` [EZM0414], the “scaled Clint, mouse hepatocytes” value in data set [1] amounted to 216 mL min^–1 kg^–1. The “scaled Clint, human hepatocytes” value in data set [2] was found to be 9 mL min^–1 kg^–1. In addition, the “scaled Clint, rat hepatocytes” value in data set [3] is on record as 154 mL min^–1 kg^–1.
Regarding `CC(=O)N1CCN(c2cccc(NC(=O)c3cc4c(F)ccc(C)c4[nH]3)c2)CC1` [compound 3], the “scaled Clint, mouse hepatocytes” value in data set [1] is recorded as 678 mL min^–1 kg^–1. In data set [2], the “scaled Clint, human hepatocytes” value was 32 mL min^–1 kg^–1. In addition, the “scaled Clint, rat hepatocytes” value in data set [3] was 283 mL min^–1 kg^–1.
Turning to `Cc1ccc(F)c2cc(C(=O)N[C@@H]3CCC[C@H](N4CCN5C(=O)CC[C@H]5C4)C3)[nH]c12` [compound 7], the “scaled Clint, mouse hepatocytes” value in data set [1] is 425 mL min^–1 kg^–1. For the same molecule, the “scaled Clint, human hepatocytes” value in data set [2] turned out to be 23 mL min^–1 kg^–1. In addition, the “scaled Clint, rat hepatocytes” value in data set [3] was 69 mL min^–1 kg^–1.
In the case of `CC(=O)N1CC[C@H]2CN([C@H]3CCC[C@@H](NC(=O)c4cc5c(F)ccc(C)c5[nH]4)C3)C[C@H]21` [compound 8], the “scaled Clint, mouse hepatocytes” value in data set [1] was found to be 889 mL min^–1 kg^–1. Also, the “scaled Clint, human hepatocytes” value in data set [2] was determined as 18 mL min^–1 kg^–1. In data set [3], the “scaled Clint, rat hepatocytes” value was determined as 265 mL min^–1 kg^–1. For the same molecule, in data set [4], the oral absorption entry was “reasonable oral absorption” and the “parent recovered in feces following iv administration” value was 17–30%.
The like results for `CC(=O)N1CC[C@H]2[C@@H]1CCN2[C@H]1CCC[C@@H](NC(=O)c2cc3c(F)ccc(C)c3[nH]2)C1` [compound 9] were, in that order, 103 mL min^–1 kg^–1, 5 mL min^–1 kg^–1, 72 mL min^–1 kg^–1, “reasonable oral absorption” and 17–30%.

Source of the values: article PMC9290024 (ACS Medicinal Chemistry Letters, 2022).
